Data: US20250127907A1, “PARP INHIBITORS” (Stablix, Inc., priority 2023, published 2025)
Where two headings read alike, the source gives them in different places.

Columns and labels:
[1] = target: T1, PARP1 (Homo sapiens, UniProt P09874); assay: PARP trapping assay in U2OS cells; assay type: cell-based; set-up: endogenous in cells; host or cells: U2OS
Procedure, shortened: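 U2OS cells co-treated with compounds and MMS for 4 h, then soluble proteins extracted with 0.5% Triton X-100, MeOH-fixed and immunostained for PARP1. Chromatin-bound PARP1 quantified as AF488 intensity per DAPI-segmented nucleus; potencies reported as letter-code bins.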
Target sequence in this assay (P09874 whole entry): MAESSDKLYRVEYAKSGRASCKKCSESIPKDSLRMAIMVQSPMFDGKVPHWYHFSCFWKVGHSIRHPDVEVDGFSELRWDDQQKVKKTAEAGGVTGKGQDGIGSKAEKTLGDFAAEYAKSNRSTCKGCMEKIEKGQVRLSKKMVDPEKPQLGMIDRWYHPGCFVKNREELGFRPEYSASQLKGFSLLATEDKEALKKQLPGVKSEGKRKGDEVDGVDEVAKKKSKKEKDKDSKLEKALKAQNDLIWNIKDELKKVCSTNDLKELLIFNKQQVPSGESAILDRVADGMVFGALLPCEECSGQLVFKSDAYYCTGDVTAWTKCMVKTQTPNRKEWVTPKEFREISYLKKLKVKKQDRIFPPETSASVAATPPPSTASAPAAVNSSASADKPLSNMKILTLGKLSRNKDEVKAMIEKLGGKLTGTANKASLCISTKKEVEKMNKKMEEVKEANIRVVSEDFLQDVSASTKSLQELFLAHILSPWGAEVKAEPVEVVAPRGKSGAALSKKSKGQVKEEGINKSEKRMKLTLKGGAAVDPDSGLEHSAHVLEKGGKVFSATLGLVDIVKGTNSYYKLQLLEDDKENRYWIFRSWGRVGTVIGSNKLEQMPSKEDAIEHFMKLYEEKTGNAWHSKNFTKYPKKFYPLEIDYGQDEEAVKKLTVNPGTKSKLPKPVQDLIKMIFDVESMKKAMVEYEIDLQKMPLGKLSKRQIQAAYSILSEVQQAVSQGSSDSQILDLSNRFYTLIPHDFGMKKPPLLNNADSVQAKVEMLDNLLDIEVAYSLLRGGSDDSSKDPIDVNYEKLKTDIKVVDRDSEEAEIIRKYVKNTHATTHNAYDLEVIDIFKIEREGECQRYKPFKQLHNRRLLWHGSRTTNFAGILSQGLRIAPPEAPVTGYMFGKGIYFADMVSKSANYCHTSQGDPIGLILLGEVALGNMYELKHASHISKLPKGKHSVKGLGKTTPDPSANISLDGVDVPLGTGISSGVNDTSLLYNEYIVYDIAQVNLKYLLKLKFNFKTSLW

[2] = test system: Poly/Mono-ADP Ribose in U2OS cells; assay: PAR in cell western assay (parylation) in U2OS cells; assay type: cell-based; details: read-out: Parylation (U2OS)
Procedure, shortened: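 U2OS cells treated with compound for 6 h, then 2 mM H2O2 for 10 min to induce DNA damage. After methanol fixation, cells stained overnight at 4 °C with anti-mono/poly-ADP-ribose antibody and imaged by infrared in-cell western, normalized to CellTag 700; reported as % control inhibition.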

[3] = target: T1, PARP1; assay: PARP1-enzyme assay (NAD/NADH-Glo biochemical assay); details: recombinant PARP1, NAD+ consumption
Procedure: The PARP enzyme catalyzes the transfer of ADP-Ribose from NAD+ onto PAR chains/histone substrates. The catalytic cycle is monitored indirectly with the NAD/NADH-Glo Assay kit from Promega. […] NAD+ consumed is determined by comparison to the no enzyme control.
• Recombinant PARP1 • NAD+/NAHD-Glow assay Kit • Activated DNA, 10 μg/mL • NAD+(Nicotinamide Adenine Dinucleotide), 500 nM • Protein substrate for PARP1: Core Histone from chicken, 10 μg/mL
The letter codes for the PARP1-enzyme assay include: A (<1 nM), B (>1-10 nM), C (>10-100 nM), D (>100-1000 nM), E (>1000 nM), and “-” is not tested. The letter codes for the PARP trapping assay, and parylation assay include: A (<10 nM), B (>10-100 nM), C (>100-1000 nM), […], E (>10000 nM), and “-” is not tested.
Target sequence in this assay (P09874 whole entry, species assumed): as the sequence (P09874 whole entry) above

[4] = test system: MDA-MB-436 cells; assay: Cell proliferation assay (MDA-MB-436); assay type: cell-based; details: 7 days
[5] = test system: HCC1806 cells; assay: Cell proliferation assay (HCC1806); assay type: cell-based; details: 7 days
[6] = test system: A2780 cells; assay: Cell proliferation assay (A2780); assay type: cell-based; details: 7 days
[7] = U2OS cells, MMS, 4 hrs, read-out: PARP Trapping (U2OS)
[8] = Homo sapiens, U2OS cells, 6 hrs, 2 mM H2O2

Row | SMILES | IC50 [1, 7] | IC50 [2, 8] | IC50 [3] | IC50 ([4]; Homo sapiens, 168 h) | IC50 ([5]; Homo sapiens, 168 h) | IC50 ([6]; Homo sapiens, 168 h) | IC50 ([2]; U2OS cells, 6 hrs, 2 mM H2O2) | IC50 [6] | IC50 [4] | IC50 [5] | IC50 [1] | IC50 ([2]; Homo sapiens, U2OS, 6 h)
1 | CCc1cccc(-c2cnc(C(=O)N3CCN(CC4CCN(CC(=O)N5CCN(C(=O)c6cc(Cc7n[nH]c(=O)c8ccccc78)ccc6F)CC5)CC4)CC3)c(NC(=O)CNCc3cc(C)no3)c2)c1 [Compound I-233] | 100 to 1000 nM | 10 to 100 nM | < 1 nM | 10 to 100 nM | < 10 nM | – | – | – | – | – | – | –
2 | O=C(N[C@@H](C(=O)N1CCN(CC2CCN(CC(=O)N3CCN(C(=O)c4cc(Cc5n[nH]c(=O)c6ccccc56)ccc4F)CC3)CC2)CC1)C1CCCCC1)c1cc(C2CCCN(C(=O)CNCc3ccc(F)cc3F)C2)ccc1F (stereo partly shown) [Compound I-346] | 100 to 1000 nM | 10 to 100 nM | < 1 nM | 10 to 100 nM | – | 100 to 1000 nM | – | – | – | – | – | –
3 | COC12CCC(CNCC(=O)N3CCCC(c4cccc(C(=O)N[C@@H](C(=O)N5CCN(CC6CCN(CC(=O)N7CCN(C(=O)c8cc(Cc9n[nH]c(=O)c%10ccccc9%10)ccc8F)CC7)CC6)CC5)C5CCCCC5)c4)C3)(CC1)OC2 (stereo partly shown) [Compound I-157] | 100 to 1000 nM | 100 to 1000 nM | < 1 nM | 10 to 100 nM | < 10 nM | – | – | – | – | – | – | –
4 | CCOc1cc(OC)ccc1CNCC(=O)N1CCC[C@H](c2cccc(C(=O)N[C@@H](C(=O)N3CCC(CN4CCN(CC(=O)N5CCN(C(=O)c6cc(Cc7n[nH]c(=O)c8ccccc78)ccc6F)CC5)CC4)CC3)C3CCCCC3)c2)C1 [Compound I-168] | 10 to 100 nM | – | < 1 nM | – | – | – | 100 to 1000 nM | 10 to 100 nM | < 10 nM | – | – | –
5 | CCc1cccc(-c2cnc(C(=O)N3CCC(CN4CCN(CC(=O)N5CCN(C(=O)c6cc(Cc7n[nH]c(=O)c8ccccc78)ccc6F)CC5)CC4)CC3)c(NC(=O)CNCc3ccc(F)cc3F)c2)c1 [Compound I-331] | 100 to 1000 nM | 10 to 100 nM | < 1 nM | 10 to 100 nM | – | 10 to 100 nM | – | – | – | – | – | –
6 | O=C(N[C@@H](C(=O)N1CCN(CC2CCN(CC(=O)N3CCN(C(=O)c4cc(Cc5n[nH]c(=O)c6ccccc56)ccc4F)CC3)CC2)CC1)C1CCCCC1)c1cccc(C2CCCN(C(=O)COC3CC3)C2)c1 (stereo partly shown) [Compound I-353] | 100 to 1000 nM | 100 to 1000 nM | < 1 nM | 10 to 100 nM | – | 100 to 1000 nM | – | – | – | – | – | –
7 | CCc1cccc(-c2cnc(C(=O)N3CCN(CC4CCN(CC(=O)N5CCN(C(=O)c6cc(Cc7n[nH]c(=O)c8ccccc78)ccc6F)CC5)CC4)CC3)c(NC(=O)CNCc3ccncn3)c2)c1 [Compound I-238] | 100 to 1000 nM | 100 to 1000 nM | < 1 nM | 10 to 100 nM | – | 1000 to 10000 nM | – | – | – | – | – | –
8 | CCOc1cc(OC)ccc1CNCC(=O)N1CCCC(c2cccc(C(=O)N[C@@H](C(=O)N3CCC(OC4CCN(CC(=O)N5CCN(C(=O)c6cc(Cc7n[nH]c(=O)c8ccccc78)ccc6F)CC5)CC4)CC3)C3CCCCC3)c2)C1 (stereo partly shown) [Compound I-173] | 10 to 100 nM | 100 to 1000 nM | < 1 nM | 10 to 100 nM | < 10 nM | – | – | – | – | – | – | –
9 | Cc1sc(CN2CCCC2c2nnc3n2CCCCC3)nc1C12CC(C(=O)NCCOCCOCCNCC(=O)N3CCN(C(=O)c4cc(Cc5cccc6c(=O)[nH]ncc56)ccc4F)CC3)(C1)C2 (stereo not shown) [Compound I-193] | > 10000 nM | – | < 1 nM | – | – | – | 100 to 1000 nM | – | 100 to 1000 nM | < 10 nM | – | –
10 | CCc1cccc(-c2cnc(C(=O)NCCCCCNCC(=O)N3CCN(C(=O)c4cc(Cc5n[nH]c(=O)c6ccccc56)ccc4F)CC3)c(NC(=O)CNCc3cccc(C)c3)c2)c1 [Compound I-64] | 100 to 1000 nM | 100 to 1000 nM | < 1 nM | 10 to 100 nM | – | 100 to 1000 nM | – | – | – | – | – | –
11 | CCOc1cc(OC)ccc1CNCC(=O)N1CCCC(c2cccc(C(=O)N[C@@H](C(=O)NCCOCCOCCOCCOCCNCC(=O)N3CCN(C(=O)c4cc(Cc5n[nH]c(=O)c6ccccc56)ccc4F)CC3)C3CCCCC3)c2)C1 (stereo partly shown) [Compound I-31] | – | < 10 nM | < 1 nM | 100 to 1000 nM | < 10 nM | – | – | – | – | – | – | –
12 | CCc1cccc(-c2cnc(C(=O)N3CCC(OC4CCN(CC(=O)N5CCN(C(=O)c6cc(Cc7n[nH]c(=O)c8ccccc78)ccc6F)CC5)CC4)CC3)c(NC(C)=O)c2)c1 [Compound I-404] | 100 to 1000 nM | 10 to 100 nM | < 1 nM | < 10 nM | – | 10 to 100 nM | – | – | – | – | – | –
13 | CCc1cccc(-c2cnc(C(=O)N3CCC(CN4CCN(CC(=O)N5CCN(C(=O)c6cc(Cc7n[nH]c(=O)c8ccccc78)ccc6F)CC5)CC4)CC3)c(NC3CC3)c2)c1 [Compound I-407] | 10 to 100 nM | 10 to 100 nM | < 1 nM | < 10 nM | – | 10 to 100 nM | – | – | – | – | – | –
14 | O=C(CNC1CC1)N1CCCC(c2cccc(C(=O)N3CCN(CC45CCC(C(=O)N6CCN(C(=O)c7cc(Cc8n[nH]c(=O)c9ccccc89)ccc7F)CC6)(CC4)CO5)CC3)c2)C1 (stereo not shown) [Compound I-377] | 10 to 100 nM | 10 to 100 nM | < 1 nM | < 10 nM | – | 10 to 100 nM | – | – | – | – | – | –
15 | CCOc1cc(OC)ccc1CNCC(=O)N1CCCC(c2cccc(C(=O)N[C@@H](C(=O)NCc3cn(CCNCC(=O)N4CCN(C(=O)c5cc(Cc6n[nH]c(=O)c7ccccc67)ccc5F)CC4)nn3)C3CCCCC3)c2)C1 (stereo partly shown) [Compound I-29] | – | < 10 nM | < 1 nM | 1000 to 10000 nM | < 10 nM | – | – | – | – | – | – | –
16 | CCc1cccc(-c2cnc(C(=O)N3CCC(CN4CCN(CC(=O)N5CCN(C(=O)c6cc(Cc7n[nH]c(=O)c8ccccc78)ccc6F)CC5)CC4)CC3)c(NC)c2)c1 [Compound I-418] | 100 to 1000 nM | 100 to 1000 nM | < 1 nM | < 10 nM | – | 100 to 1000 nM | – | – | – | – | – | –
17 | CCc1cccc(-c2cnc(C(=O)N3CCC(CN4CCN(CC(=O)N5CCN(C(=O)c6cc(Cc7n[nH]c(=O)c8ccccc78)ccc6F)CC5)CC4)CC3)c(NC(=O)CNCc3cccc(C)c3)c2)c1 [Compound I-61] | 10 to 100 nM | 100 to 1000 nM | < 1 nM | 10 to 100 nM | – | 100 to 1000 nM | – | – | – | – | – | –
18 | O=C(N[C@@H](C(=O)N1CCN(CC2CCN(CC(=O)N3CCN(C(=O)c4cc(Cc5n[nH]c(=O)c6ccccc56)ccc4F)CC3)CC2)CC1)C1CCCCC1)c1cccc(C2CCCN(C(=O)CNCc3ccc(F)cc3F)C2)c1 (stereo partly shown) [Compound I-184] | 100 to 1000 nM | 100 to 1000 nM | < 1 nM | 10 to 100 nM | – | 100 to 1000 nM | – | – | – | – | – | –
19 | O=C(N[C@@H](C(=O)N1CCN(CC2CCN(CC(=O)N3CCN(C(=O)c4cc(Cc5n[nH]c(=O)c6ccccc56)ccc4F)CC3)CC2)CC1)C1CCCCC1)c1cc(C2CCCN(C(=O)CNC3CC3)C2)ccc1F (stereo partly shown) [Compound I-323] | – | – | < 1 nM | < 10 nM | – | 100 to 1000 nM | – | – | – | – | 100 to 1000 nM | 100 to 1000 nM
20 | O=C(N[C@@H](C(=O)N1CCN(CC2CCN(CC(=O)N3CCN(C(=O)c4cc(Cc5n[nH]c(=O)c6ccccc56)ccc4F)CC3)CC2)CC1)C1CCCCC1)c1cccc(C2CCCN(C(=O)CNC3CC3)C2)c1 (stereo partly shown) [Compound I-183] | 100 to 1000 nM | 100 to 1000 nM | < 1 nM | 10 to 100 nM | – | 100 to 1000 nM | – | – | – | – | – | –
21 | O=C(N[C@@H](C(=O)N1CCN(CC2CCN(CC(=O)N3CCN(C(=O)c4cc(Cc5n[nH]c(=O)c6ccccc56)ccc4F)CC3)CC2)CC1)C1CCCCC1)c1cccc([C@H]2CCCN(C(=O)CNCc3ccc(F)cc3F)C2)c1 [Compound I-294] | 100 to 1000 nM | 10 to 100 nM | 1 to 10 nM | 10 to 100 nM | – | 100 to 1000 nM | – | – | – | – | – | –
